Test results as given in ChEMBL document CHEMBL1201862, “PubChem BioAssay data set” (2004).
The source made the active and inactive calls.

Experiments:
Bcl-2-like protein 10 = target: T1, Bcl-2-like protein 10 (Homo sapiens, UniProt Q9HD36); assay: Bcl-B/TR3 peptide binding disruption – biochemical, fluorescence polarization, FITC-TR3 peptide, selectivity assay for Bfl-1 inhibitor project, primary screen (AID 748);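 further: fluorescence polarization from a fluorescein-labelled TR3 peptide binding purified Bcl-B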
T1 sequence (Q9HD36 whole entry): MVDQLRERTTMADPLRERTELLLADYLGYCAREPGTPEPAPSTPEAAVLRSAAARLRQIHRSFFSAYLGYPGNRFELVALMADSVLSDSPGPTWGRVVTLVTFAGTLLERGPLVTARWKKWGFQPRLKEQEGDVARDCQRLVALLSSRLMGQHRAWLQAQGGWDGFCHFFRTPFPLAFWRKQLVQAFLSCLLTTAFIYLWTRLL

[1] = tested on: Streptococcus sp. 'group A'; assay: Streptococcus pyogenes SK(-)GAS viability under kanamycin – luminescence, BacTiterGlo, confirmation, counter-screen for streptokinase expression inhibitor project, dose response (AID 1900); type: functional, organism-based
Beta-galactosidase = Beta-galactosidase (Escherichia coli, UniProt Q8VNN2); assay: detection-enzyme interference by beta-gal modulators – biochemical, E. coli enzyme, set 3, artefact control for CCR6 antagonist project, dose response (AID 504712); type: functional
Chain of Beta-galactosidase (Q8VNN2 whole entry): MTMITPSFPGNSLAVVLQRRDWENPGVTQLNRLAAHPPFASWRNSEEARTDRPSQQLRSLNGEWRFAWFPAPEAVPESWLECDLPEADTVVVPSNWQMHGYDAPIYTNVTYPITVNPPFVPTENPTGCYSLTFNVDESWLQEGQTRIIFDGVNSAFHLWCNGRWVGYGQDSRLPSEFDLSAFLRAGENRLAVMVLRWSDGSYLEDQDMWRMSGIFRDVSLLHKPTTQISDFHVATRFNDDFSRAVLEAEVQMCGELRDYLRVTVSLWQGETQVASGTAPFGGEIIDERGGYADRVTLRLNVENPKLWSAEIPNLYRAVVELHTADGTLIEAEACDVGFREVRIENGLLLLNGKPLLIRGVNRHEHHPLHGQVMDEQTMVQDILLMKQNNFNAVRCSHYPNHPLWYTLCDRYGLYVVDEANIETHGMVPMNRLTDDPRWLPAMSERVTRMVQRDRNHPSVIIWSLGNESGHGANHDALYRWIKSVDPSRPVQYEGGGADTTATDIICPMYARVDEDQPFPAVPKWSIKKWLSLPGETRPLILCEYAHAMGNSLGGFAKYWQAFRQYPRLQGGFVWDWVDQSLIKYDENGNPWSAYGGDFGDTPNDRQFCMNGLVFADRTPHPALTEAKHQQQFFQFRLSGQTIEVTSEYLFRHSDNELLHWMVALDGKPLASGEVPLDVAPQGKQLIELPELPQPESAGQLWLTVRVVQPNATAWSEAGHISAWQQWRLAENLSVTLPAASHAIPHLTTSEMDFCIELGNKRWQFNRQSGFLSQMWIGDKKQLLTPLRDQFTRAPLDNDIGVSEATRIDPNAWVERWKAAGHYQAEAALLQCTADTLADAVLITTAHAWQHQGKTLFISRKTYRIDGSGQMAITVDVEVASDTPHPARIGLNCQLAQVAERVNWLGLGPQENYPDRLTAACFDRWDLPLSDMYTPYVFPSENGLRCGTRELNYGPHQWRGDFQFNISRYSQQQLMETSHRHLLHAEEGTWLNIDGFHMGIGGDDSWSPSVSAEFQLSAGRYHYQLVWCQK

Streptokinase A = target: T2, Streptokinase A (Streptococcus pyogenes serotype M1, UniProt P10520); assay: viability-normalized secreted streptokinase activity reduction – plasminogen activation absorbance, OD405, dose response (AID 1914); type: functional, Streptococcus pyogenes M1 GAS;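 further: secreted streptokinase activity via plasminogen activation per viability signal from cell pellet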
T2 sequence (P10520 whole entry): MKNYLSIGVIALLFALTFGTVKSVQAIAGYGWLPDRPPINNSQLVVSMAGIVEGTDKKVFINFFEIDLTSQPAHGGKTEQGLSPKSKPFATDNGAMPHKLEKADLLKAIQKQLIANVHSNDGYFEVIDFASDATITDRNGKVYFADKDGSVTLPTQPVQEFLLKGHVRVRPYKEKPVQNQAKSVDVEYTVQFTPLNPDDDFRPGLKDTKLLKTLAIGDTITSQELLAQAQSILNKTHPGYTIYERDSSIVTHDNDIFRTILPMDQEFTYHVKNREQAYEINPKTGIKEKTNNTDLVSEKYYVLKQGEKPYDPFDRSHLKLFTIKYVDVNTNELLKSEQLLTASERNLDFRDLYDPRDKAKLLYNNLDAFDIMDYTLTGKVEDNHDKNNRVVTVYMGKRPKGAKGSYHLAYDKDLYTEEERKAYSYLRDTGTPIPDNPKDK

Streptococcus = assay: GAS UMAA2166 growth inhibition – luminescence, BacTiterGlo, counter-screen for streptokinase expression inhibitor project, dose response (AID 1915); type: functional, organism-based;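 further: potency for reduction of bacterial viability or growth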
[2] = target: T3, Short transient receptor potential channel 4 (Mus musculus, UniProt Q9QUQ5); assay: block of DAMGO-driven TRPC4 calcium entry – cell-based, HEK293 TRPC4/mu-opioid, Fluo-4 calcium, dose response (AID 434942); type: functional;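 further: potency of inhibitors blocking the TRPC4 calcium response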
T3 sequence (Q9QUQ5 whole entry): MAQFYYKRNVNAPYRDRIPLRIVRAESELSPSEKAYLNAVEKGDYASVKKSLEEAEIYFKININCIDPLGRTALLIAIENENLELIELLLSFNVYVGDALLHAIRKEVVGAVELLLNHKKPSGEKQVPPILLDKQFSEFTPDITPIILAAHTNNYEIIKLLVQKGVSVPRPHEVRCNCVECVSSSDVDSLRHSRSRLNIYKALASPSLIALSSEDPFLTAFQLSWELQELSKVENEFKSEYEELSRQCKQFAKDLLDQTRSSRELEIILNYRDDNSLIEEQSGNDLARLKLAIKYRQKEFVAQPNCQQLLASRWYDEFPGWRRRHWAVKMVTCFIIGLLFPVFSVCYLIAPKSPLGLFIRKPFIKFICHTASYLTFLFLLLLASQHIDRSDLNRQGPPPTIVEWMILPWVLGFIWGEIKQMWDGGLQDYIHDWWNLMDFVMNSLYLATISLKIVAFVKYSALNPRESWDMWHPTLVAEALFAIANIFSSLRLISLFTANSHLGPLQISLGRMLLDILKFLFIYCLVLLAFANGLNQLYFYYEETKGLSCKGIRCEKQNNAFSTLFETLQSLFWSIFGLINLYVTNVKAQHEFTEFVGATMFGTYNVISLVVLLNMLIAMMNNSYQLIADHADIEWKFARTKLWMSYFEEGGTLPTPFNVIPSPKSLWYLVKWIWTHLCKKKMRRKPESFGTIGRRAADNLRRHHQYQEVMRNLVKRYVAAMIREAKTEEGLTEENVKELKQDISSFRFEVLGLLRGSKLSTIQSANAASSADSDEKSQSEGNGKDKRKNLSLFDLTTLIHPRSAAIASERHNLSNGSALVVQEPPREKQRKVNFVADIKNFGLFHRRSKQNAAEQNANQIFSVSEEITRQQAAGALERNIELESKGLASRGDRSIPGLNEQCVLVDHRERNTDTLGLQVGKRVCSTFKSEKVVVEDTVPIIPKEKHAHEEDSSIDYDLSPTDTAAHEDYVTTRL

cells = type: functional
[3] = THP-1 cell cytotoxicity, dose response, cytotoxicity control for non-replicating M. tuberculosis project (AID 489025); type: functional
[4] = Vero E6 cell cytotoxicity, dose response, cytotoxicity control for non-replicating M. tuberculosis project, secondary assay (AID 492998); type: functional, VeroE6; conditions: Vero C1008
[5] = HepG2 cell cytotoxicity, dose response, cytotoxicity control for non-replicating M. tuberculosis project (AID 489018); type: functional; conditions: Mycobacterium tuberculosis
[6] = NIH3T3 cell viability loss – ATP luminescence, mouse fibroblasts, counter-screen, dose response (AID 2010); type: functional, cell-based;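 further: cells exposed to compound for about 90 hours before reading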
[7] = Trypanosoma cruzi growth suppression in host cells – NIH3T3 host cells, beta-gal luminescence, confirmation (AID 2044); type: functional, cell-based;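 further: intracellular parasites grown in NIH/3T3 mouse fibroblasts as host cells; luminescent beta-galactosidase reporter signal from transgenic T. cruzi replicating inside host cells; inhibitors lower the luminescence signal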
Trypsin = Trypsin (Sus scrofa, UniProt P00761); assay: trypsin protease activity blockade – biochemical, quenched peptide fluorescence, cherry-pick, selectivity assay for Rce1 protease inhibitor project, dose response (AID 488789)
Chain of Trypsin (P00761 whole entry): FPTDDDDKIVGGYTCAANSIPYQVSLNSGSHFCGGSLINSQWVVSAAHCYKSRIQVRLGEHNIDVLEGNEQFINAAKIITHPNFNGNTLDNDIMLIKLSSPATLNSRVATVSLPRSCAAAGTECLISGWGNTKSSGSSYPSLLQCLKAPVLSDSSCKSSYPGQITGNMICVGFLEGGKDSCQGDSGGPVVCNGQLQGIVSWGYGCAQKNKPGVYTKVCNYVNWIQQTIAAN

CAAX prenyl protease 2 = CAAX prenyl protease 2 (Saccharomyces cerevisiae S288c, UniProt Q03530); type: biochemical
Chain of CAAX prenyl protease 2 (Q03530 whole entry): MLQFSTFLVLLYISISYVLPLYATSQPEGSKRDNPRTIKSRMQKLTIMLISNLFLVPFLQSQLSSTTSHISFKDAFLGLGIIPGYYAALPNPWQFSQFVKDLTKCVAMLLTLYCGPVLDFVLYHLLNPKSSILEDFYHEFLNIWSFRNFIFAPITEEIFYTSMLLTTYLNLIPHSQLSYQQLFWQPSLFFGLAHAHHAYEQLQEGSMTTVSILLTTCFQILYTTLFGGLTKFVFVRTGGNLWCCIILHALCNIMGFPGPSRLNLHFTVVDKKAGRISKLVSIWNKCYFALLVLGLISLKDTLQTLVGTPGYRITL

Cytochrome P450 3A4 = Cytochrome P450 3A4 (Homo sapiens, UniProt P08684);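 further: CYP3A4 tested as one member of a cytochrome P450 panel screen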
Chain of Cytochrome P450 3A4 (P08684 whole entry): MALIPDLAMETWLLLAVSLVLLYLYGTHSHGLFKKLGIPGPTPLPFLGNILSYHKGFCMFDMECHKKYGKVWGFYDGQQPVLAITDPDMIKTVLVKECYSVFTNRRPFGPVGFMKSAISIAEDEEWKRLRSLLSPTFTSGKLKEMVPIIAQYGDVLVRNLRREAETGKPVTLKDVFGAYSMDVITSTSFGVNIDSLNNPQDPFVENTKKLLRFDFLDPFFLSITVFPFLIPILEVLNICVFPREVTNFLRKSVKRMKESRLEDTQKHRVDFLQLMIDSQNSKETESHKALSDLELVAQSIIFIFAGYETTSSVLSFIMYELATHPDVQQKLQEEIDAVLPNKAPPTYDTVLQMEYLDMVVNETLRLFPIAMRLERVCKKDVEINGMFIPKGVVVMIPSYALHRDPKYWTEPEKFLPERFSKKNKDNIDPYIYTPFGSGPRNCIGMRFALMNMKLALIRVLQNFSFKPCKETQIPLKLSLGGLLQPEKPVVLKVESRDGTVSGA

[8] = Luminescence Cell-Based Dose Response HTS to Identify Activators of Luciferase Translation or Activity in H4 […] Cells. [Related pubchem assays: 1829 (Project Summary), 1814 (Primary HTS)]; type: functional
[9] = Luminescence Cell-Based Dose Confirmation HTS to Identify Activators of 5'UTR Stem-Loop Driven Alpha-Synuclein mRNA Translation in H4 Neuroglioblastoma Cells. [Related pubchem assays: 1829 (Project Summary), 1814 (Primary HTS)]; type: functional
[10] = NIH-3T3 fibroblast cytotoxicity, dose response, cytotoxicity control, cell-based, fluorescence, Alamar Blue, secondary assay (AID 2327); type: functional;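 further: NIH-3T3 mouse fibroblasts cultured with fluconazole at 8 µg/mL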
[11] = target: T3, Short transient receptor potential channel 4; assay: calcium entry via TRPC4 opening agents – cell-based, HEK293 TRPC4/mu-opioid, Fluo-4 calcium, dose response (AID 434937); type: functional
Cytochrome P450 2C19 = Cytochrome P450 2C19 (Homo sapiens, UniProt P33261); assay: Cytochrome panel assay with activity outcomes. Panel member name: p450-cyp2c19 Compounds with AC50 equal or less than 10 uM are considered active; type: functional; conditions: read-out: AC50
Chain of Cytochrome P450 2C19 (P33261 whole entry): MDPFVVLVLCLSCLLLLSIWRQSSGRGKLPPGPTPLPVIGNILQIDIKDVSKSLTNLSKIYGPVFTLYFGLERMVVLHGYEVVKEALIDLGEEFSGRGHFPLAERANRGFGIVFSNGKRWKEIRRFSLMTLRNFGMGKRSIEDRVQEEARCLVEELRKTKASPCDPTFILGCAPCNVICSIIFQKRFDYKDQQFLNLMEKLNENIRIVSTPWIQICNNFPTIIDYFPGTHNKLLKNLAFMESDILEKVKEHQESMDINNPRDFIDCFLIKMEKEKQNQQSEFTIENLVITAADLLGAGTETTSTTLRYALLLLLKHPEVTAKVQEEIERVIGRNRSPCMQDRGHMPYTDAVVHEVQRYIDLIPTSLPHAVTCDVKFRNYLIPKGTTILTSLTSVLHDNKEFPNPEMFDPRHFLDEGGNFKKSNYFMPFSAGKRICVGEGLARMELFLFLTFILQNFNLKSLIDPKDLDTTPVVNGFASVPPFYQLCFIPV

Cytochrome P450 2C9 = Cytochrome P450 2C9 (Homo sapiens, UniProt P11712)
Chain of Cytochrome P450 2C9 (P11712 whole entry): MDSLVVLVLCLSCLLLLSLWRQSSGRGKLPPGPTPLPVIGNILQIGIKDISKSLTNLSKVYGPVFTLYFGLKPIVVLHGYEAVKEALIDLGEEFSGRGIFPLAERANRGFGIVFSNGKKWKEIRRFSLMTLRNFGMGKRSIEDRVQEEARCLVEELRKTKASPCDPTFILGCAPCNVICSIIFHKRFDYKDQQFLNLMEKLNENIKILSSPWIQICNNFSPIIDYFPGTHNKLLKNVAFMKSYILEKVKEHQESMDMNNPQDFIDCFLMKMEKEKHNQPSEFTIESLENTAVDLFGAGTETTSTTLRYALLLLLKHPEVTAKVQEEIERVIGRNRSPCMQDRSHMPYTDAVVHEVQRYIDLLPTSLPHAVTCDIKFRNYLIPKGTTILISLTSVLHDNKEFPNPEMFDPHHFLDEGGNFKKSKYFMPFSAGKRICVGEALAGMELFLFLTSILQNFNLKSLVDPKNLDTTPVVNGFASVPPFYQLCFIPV

H4 = assay: Luminescence Cell-Based Dose Response HTS to Identify Activators of 5'UTR Stem-Loop Driven Prion Protein mRNA Translation in H4 Neuroglioblastoma Cells. [Related pubchem assays: 1829 (Project Summary), 1814 (Primary HTS)]; type: functional; conditions: Homo sapiens

SMILES: O=S(=O)(c1ccccc1)N(CC(O)CN1CCCCC1)c1ccccc1 (configuration not stated)
- IC50 (Bcl-2-like protein 10): > 100 µM (inactive)

SMILES: COC(=O)c1[nH]c2ccc(C)cc2c1NC(=O)CCN1CCN(Cc2ccc3c(c2)OCO3)CC1
- IC50 (Bcl-2-like protein 10): > 100 µM (inactive)

SMILES: CCCCCCC(=O)NN/C=C1\C(=O)NC(=S)N(C(C)CC)C1=O (configuration not stated)
- EC50 [1]: 5.17 µM (active)
- IC50 (Beta-galactosidase): > 66.6 µM (inactive)
- EC50 (Streptokinase A): > 150 µM (not active)
- EC50 (Streptococcus): 9.29 µM (active)

SMILES: CN1CCN(c2ccc(NC(=O)c3ccc(-c4ccc(Cl)cc4)o3)cc2)CC1
- EC50 [2]: 66.7 nM (active)
- IC50 (cells): 3.04 µM (active)
- CC50 [3]: 17.6 µM (active)
- CC50 [4]: 17.2 µM (active)
- CC50 [5]: 8.12 µM (active)

SMILES: O=C(CSc1nc2ccccc2s1)N1N=C(c2cccs2)CC1c1ccc(F)cc1 (configuration not stated)
- EC50 [6]: > 60 µM (not active)
- EC50 [7]: 1.06 µM (active)
- AC50 (Trypsin): 24.5 µM (active)
- AC50 (CAAX prenyl protease 2): 12.1 µM (active)

SMILES: Cc1cc(C)n(-c2nc(SCCN(C)C)c3c4c(sc3n2)CCCC4)n1
- AC50 (Cytochrome P450 3A4): 17.8 µM (inconclusive)
- EC50 [8]: > 120 µM (not active)
- EC50 [9]: > 120 µM (not active)
- EC50 [10]: 56 µM (active)
- EC50 [11]: 1.88 µM (active)
- IC50 (cells): 9.58 µM (active)
- AC50 (Cytochrome P450 2C19): 31.6 µM (inconclusive)
- CC50 [3]: 13.5 µM (active)
- AC50 (Cytochrome P450 2C9): 15.8 µM (inconclusive)
- CC50 [4]: 6.93 µM (active)
- CC50 [5]: 19.4 µM (active)
- EC50 (H4): > 120 µM (not active)
